The nature of data set [1]: Photochromic properties of photochromic laminate (plastic lens) made by coating method. The class given is physicochemical. Conditions: for Color developing density at 23°C: absorbance difference after 240 seconds irradiation at 23°C; for Color developing density at 35°C: absorbance difference after 240 seconds irradiation at 35°C; for Maximum absorption wavelength: after color development, second absorption wavelength (lower line of pair). Summed up:
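Curable coating with photochromic compound at 0.25 mmol per 100 g radically-polymerizable methacrylate monomer blend, spin-coated to 40 µm on primed, alkali-etched thiourethane lens (2 mm, n 1.60). Cured by metal halide lamp 200 mW/cm^2, 90 s under nitrogen, then 110°C for 1 h.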

A short description of data set [2]: Photochromic properties of photochromic cured product made by kneading method. The class given is physicochemical. The following applies: for Maximum absorption wavelength: 1 mm, after color development, second absorption wavelength (lower line of pair); for Color developing density at 23°C: absorbance difference after 240 seconds irradiation at 23°C; for Color developing density at 35°C: absorbance difference after 240 seconds irradiation at 35°C. From the text:
First, the photochromic compound obtained in Example 1, additives, and polymerizable compounds were mixed to obtain a curable composition. As the polymerizable compounds, a blend of the following polymerizable monomers in combination was used. • 1,3-Bis(isocyanatomethyl)cyclohexane: 36.7 parts by mass Pentaerythritol tetrakis(3-mercaptopropionate): 39.4 parts by mass • Polyoxyethylene polyoxypropylene lauryl ether (WONDERSURF 140 from Aoki Oil Industrial Co., Ltd.): 17.4 parts by mass 1-Decanethiol: 2.8 parts by mass • RX-1 prepared according to the method described in Patent Document 12: 3.8 parts by mass Note that in the curable composition, the photochromic compound was added to be 0.106 mmol taking the total amount of the polymerizable monomers as 100 g.
The following additives were used. Dimethyltin dichloride: 0.05 parts by mass • Irganox 245 from BASF Japan Ltd.: 0.1 parts by mass • 2-Ethylhexyl 4-methoxycinnamate: 0.6 parts by mass
The prepared curable composition was sufficiently degassed, and then injected into a glass mold provided with a gap of 1 mm, and the curable composition was polymerized via casting polymerization. […] After the polymerization, the cured product was removed from the glass mold, to obtain photochromic cured product having a thickness of 1 mm. The resulting photochromic cured product was evaluated in the same manner as in Example 23.
(Examples 51 to 60, and Comparative Examples 11 to 14) Photochromic cured products were formed using the photochromic compound shown in Table 6 in the same manner as in Example 50.

Data set [3] in a line: Photochromic properties of photochromic layer (binder sheet) made by binder method. Conditions: for Color developing density at 23°C: absorbance difference after 240 seconds irradiation at 23°C; for Color developing density at 35°C: absorbance difference after 240 seconds irradiation at 35°C; for Maximum absorption wavelength: after color development, second absorption wavelength (lower line of pair).
Description: This is the maximum absorption wavelength after color development determined by a spectrophotometer manufactured by Otsuka Electronics Co., Ltd. (instantaneous multichannel photo detector MCPD3000) and was used as an index of a color tone upon color development.
This is a difference between an absorbance {ε(240)} after irradiation with light at the above-mentioned maximum absorption wavelength at 23°C for 240 seconds and an absorbance ε(0) when not irradiated with light, and was used as an index of a color developing density. The higher this value is, the better photochromic property is.
This is a difference between an absorbance {ε(240)} after irradiation with light at first and second absorption wavelengths at 35°C for 240 seconds and an absorbance ε(0) when not irradiated with light, and was used as an index of a color developing density. The higher this value is, the better photochromic property is.
Color developing density at 35°C (A35) /color developing density at 23°C (A23) × 100(%). The higher this value is, the smaller the difference in color developing density between the higher temperature and the lower temperature is, and the smaller the temperature dependence is.
This is the period of time required for the absorbance at a maximum absorption wavelength of a sample to decrease to 1/2 of {ε(240)-ε(0)}, when light irradiation is stopped after the sample had been irradiated with light at 23°C for 240 seconds, and was used as an index of a color fading rate. The shorter this period of time is, the higher the color fading rate is.
A binder sheet was made according to the following method. […] As the first and second optical sheets, polycarbonate sheets with a thickness of 400 µm were used.
Note that the photochromic compound was added to be 0.25 mmol relative to 100 parts by mass of the terminally non-reactive urethaneurea resin.

SMILES strings stand for the structures.

Consider `COCC1(COC)c2cc(N(C)c3ccccc3)ccc2-c2c1c1c(c3ccccc23)OC(c2ccc(OC)cc2)(c2ccc(OC)c(F)c2)C=C1` (stereo not drawn) [Formula (16-3)], for which the “Color developing density at 23°C” value in data set [1] (first absorption wavelength) is reported as 0.53 -; in data set [1] (second absorption wavelength), 0.89 -; in data set [2] (first absorption wavelength) it was 0.56 -; in data set [2] (second absorption wavelength), 0.92 -; in data set [3] (first absorption wavelength) it was 0.55 -; in data set [3] (second absorption wavelength) it was 0.90 -. The “Color developing density at 35°C” value in data set [1] (first absorption wavelength) is 0.36 -; in data set [1] (second absorption wavelength), 0.61 -; in data set [2] (first absorption wavelength), 0.38 -; in data set [2] (second absorption wavelength), 0.65 -; in data set [3] (first absorption wavelength) it was 0.37 -; in data set [3] (second absorption wavelength), 0.61 -. For the same compound, the Maximum absorption wavelength in data set [1] amounted to 593 nm; in data set [2], 599 nm; in data set [3], 595 nm.

As to `COc1ccc(C2(c3ccc(OC)cc3)C=Cc3c4c(c5ccc(OC)cc5c3O2)-c2ccccc2C4(C)C)cc1` [Formula (A), reference compound], the “Color developing density at 23°C” value in data set [1] (first absorption wavelength) is 0.69 -; in data set [1] (second absorption wavelength), 0.87 -; in data set [2] (first absorption wavelength), 0.72 -; in data set [2] (second absorption wavelength), 0.91 -; in data set [3] (first absorption wavelength), 0.71 -; in data set [3] (second absorption wavelength), 0.90 -. The “Color developing density at 35°C” value is given as 0.44 - in data set [1] (first absorption wavelength); 0.55 - in data set [1] (second absorption wavelength); 0.48 - in data set [2] (first absorption wavelength); 0.61 - in data set [2] (second absorption wavelength); 0.46 - in data set [3] (first absorption wavelength); 0.58 - in data set [3] (second absorption wavelength). For the same compound, the Maximum absorption wavelength in data set [1] is listed as 569 nm; in data set [2], 578 nm; in data set [3], 569 nm.

On to `CCCCOc1ccc(C2(c3ccc(OCCCC)cc3)C=Cc3c4c(c5ccc(OC)cc5c3O2)-c2ccc(C)cc2C4(C)C)cc1` [Formula (B), reference compound], for which the “Color developing density at 23°C” value in data set [1] (first absorption wavelength) is 0.69 -; in data set [1] (second absorption wavelength), 0.96 -; in data set [2] (first absorption wavelength), 0.76 -; in data set [2] (second absorption wavelength), 0.98 -; in data set [3] (first absorption wavelength) it was 0.75 -; in data set [3] (second absorption wavelength), 0.98 -. In addition, the “Color developing density at 35°C” value in data set [1] (first absorption wavelength) is listed as 0.48 -; in data set [1] (second absorption wavelength) it was 0.65 -; in data set [2] (first absorption wavelength) it was 0.53 -; in data set [2] (second absorption wavelength), 0.69 -; in data set [3] (first absorption wavelength), 0.50 -; in data set [3] (second absorption wavelength), 0.67 -. Moreover, the Maximum absorption wavelength stood at 579 nm in data set [1], 586 nm in data set [2] and 580 nm in data set [3].

Turning to `COc1ccc(C2(c3ccc(OC)cc3)C=Cc3c4c(c5ccc(OC)cc5c3O2)-c2ccc(OC)cc2C4(C)C)cc1` [Formula (C), reference compound], the “Color developing density at 23°C” value in data set [1] (first absorption wavelength) is 0.71 -; in data set [1] (second absorption wavelength) it was 1.04 -; in data set [2] (first absorption wavelength) it was 0.74 -; in data set [2] (second absorption wavelength) it was 1.07 -; in data set [3] (first absorption wavelength) it was 0.73 -; in data set [3] (second absorption wavelength), 1.06 -. The “Color developing density at 35°C” value in data set [1] (first absorption wavelength) is listed as 0.48 -; in data set [1] (second absorption wavelength), 0.74 -; in data set [2] (first absorption wavelength) it was 0.54 -; in data set [2] (second absorption wavelength) it was 0.81 -; in data set [3] (first absorption wavelength), 0.51 -; in data set [3] (second absorption wavelength), 0.75 -. The Maximum absorption wavelength amounted to 593 nm in data set [1], 600 nm in data set [2] and 594 nm in data set [3].

In the case of `COc1ccc(C2(c3ccc(OC)cc3)C=Cc3c4c(c5ccc(OC)cc5c3O2)-c2ccc(N3CCCCC3)cc2C4(C)C)cc1` [Formula (D), reference compound], the “Color developing density at 23°C” value was 0.78 - in data set [1] (first absorption wavelength); 1.14 - in data set [1] (second absorption wavelength); 0.80 - in data set [2] (first absorption wavelength); 1.18 - in data set [2] (second absorption wavelength); 0.80 - in data set [3] (first absorption wavelength); 1.17 - in data set [3] (second absorption wavelength). In addition, the “Color developing density at 35°C” value in data set [1] (first absorption wavelength) was 0.57 -; in data set [1] (second absorption wavelength), 0.86 -; in data set [2] (first absorption wavelength), 0.62 -; in data set [2] (second absorption wavelength) it was 0.94 -; in data set [3] (first absorption wavelength) it was 0.58 -; in data set [3] (second absorption wavelength), 0.88 -. Moreover, the Maximum absorption wavelength in data set [1] was 617 nm; in data set [2] it was 625 nm; in data set [3], 617 nm.

The values are drawn from patent publication EP4755878A1, “PHOTOCHROMIC COMPOUND, PHENOL DERIVATIVE, CURABLE COMPOSITION, OPTICAL ARTICLE, LENS, AND EYEGLASS” (TOKUYAMA CORPORATION, priority 2023, dated 2025).
